Laboratory results taken from patent US20030161893A1, “PTPase inhibitors and methods of using the same” (priority 2001, published 2003).

Columns and labels:
C42 cells = assay: Cell proliferation assay (MTT), C42 prostate cancer cells; format: cell-based, human
Method: (§1) For cell proliferation assays, cells were grown in 10% FCS culture medium containing various amounts of IFNs and/or sodium stibogluconate in 96 well plates and cultured at 37° C. for 3 or 6 days as indicated. The numbers of viable cells in proliferation assays were determined by MTT assays as described in Phatak et al., J. Immunol. 167, 3391 (2001).

[1] = Tolerability in nude mice (viability, body weight, organs); format: in vivo
Method: Nude mice bearing WM9 or DU145 xenografts were treated with IFN-alpha (500,000 U, s.c., daily), sodium stibogluconate (12 mg Sb, s.c., daily) or both. […] The dosage of sodium stibogluconate corresponds to approximately 440 mg Sb/kg body weight (average mouse body weight 27 g), substantially higher than the standard therapeutic dose of 20 mg Sb/kg and the high dose (143 mg Sb/kg) that was clinically used by accident without serious toxicity. This dose of sodium stibogluconate was based on a previous observation in a pilot study that mice could tolerate daily dose of 20 mg Sb (approximately 700-800 mg Sb/kg). An observation that the effect of sodium stibogluconate in inhibiting the growth of the cancer cell lines in vitro was dose-dependent with complete or near complete killing of the cancer cells at […] (or 100 ug Sb/kg) was also considered. In light of the relatively rapid rate of clearance of the drug in vivo, 440 mg Sb/kg dosage was used to ensure the detection of the effectiveness of the drug for this initial study.
As discussed above, the dosage of sodium stibogluconate used for the treatment of nude mice was 12 mg Sb/mouse, s.c., daily (or approximately 440 mg/kg body weight). This dosage is much higher than the standard dose for leishmaniasis (20 mg Sb/kg, daily). As an initial step to assess the toxicity of such a high dosage of sodium stibogluconate in nude mice, the effect of sodium stibogluconate on the viability and body weights of WM9 xenografts nude mice during the 25 day period of the study was determined.
Athymic nude mice (nu/nu, NCR), 4 weeks old (Taconic), were inoculated (s.c.) in the flanks with DU145 cells (3×10^6 cells/site) on day 0. Starting on day 2, the mice were subjected to no treatment (Control) or treatment with sodium stibogluconate (12 mg, s.c., daily, […], at the hip area). The dosage of sodium stibogluconate used in the study was similar to the effective daily dose of sodium stibogluconate for the treatment of murine leishmaniasis (Murray, et al. 1988). Tumor volume was measured and calculated using the formula for a prolate spheroid (V=4/3 7 a^2b) (Lindner, et al. 1997). Hematoxylin+Eosin (H.E.) stained tissue sections of internal organs and tumor inoculation sites tissues of the mice were prepared and subjected microscopic evaluation.

U251 cells = assay: Cell growth assay (MTT), U251 glioma cells; format: cell-based, human; conditions: 100 μg/ml, day 6
Method: NIH3T3 (Yi, et al., Blood 85, 87 (1995)), WM9 (Forsberg, et al., Proc. Nat. Acad Sci. USA 90, 393 (1993)), DU145 (Mickey, et al., Cancer Res. 37, 4049 (1977)), LoVo (Drewinko, et al., Cancer Res. 36, 467 (1976)), HEY (Buick, et al., Cancer Res. 45, 3668 (1985)), U251 (Yoshida, et al., Cancer 50, 410 (1982)), A549 (Giard, et al., J. Natl. Cancer Inst. 51, 1417 (1973)) and SK-N-SH (Helson, et al., Cancer Res. 35, 2594 (1975)) cell lines have been described and were cultured in RPMI 1640 supplemented with 10% fetal calf serum (FCS). For measurement of sodium stibogluconate effects on cell growth in vitro, cells were cultured in the absence (−) or presence (+) of various amounts of sodium stibogluconate for 6 days with viable cells quantified by MTT assays (Mosmann, J. Imunol. Methods 65, 55 (1983)). Percentages of growth inhibition by sodium stibogluconate were calculated (+/−×%).

MDA231 cells = assay: Cell proliferation assay (MTT), MDA231 breast cancer cells; format: cell-based, human
Method: as §1

Flag-PRL-3 = target: T1, Flag-PRL-3 (Homo sapiens, UniProt O75365); assay: Immunocomplex PTPase assay, Flag-PRL-3 NIH3T3 transfectants; format: cell-based; conditions: cells treated 5 min
T1 construct: expressed in transfected cells
T1 sequence (O75365 whole entry): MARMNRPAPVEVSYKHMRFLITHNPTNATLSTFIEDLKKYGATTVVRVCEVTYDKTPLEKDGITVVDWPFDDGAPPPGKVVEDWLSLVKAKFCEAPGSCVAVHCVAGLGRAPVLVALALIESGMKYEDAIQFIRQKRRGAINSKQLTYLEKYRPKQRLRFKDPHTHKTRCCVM
Method: Immunocomplex PTPase assays were performed to assess the effects of sodium stibogluconate on intracellular PTPases. Cells were untreated or treated with sodium stibogluconate for 5 minutes, washed with fresh medium and then lysed in cold lysis buffer (50 mM Tris, pH 7.4; 150 mM NaCl; 1% NP40; 2 mM PMSF; 20 ,g/ml of Aprotinin). The lysates were incubated with an anti-Flag antibody in immunoprecipitation assays. The immunocomplexes were collected with protein G sepharose beads (Pharmacia) and washed in cold lysis buffer for 4 times. […] 100 μL of malachite green solution (UBI) was added to each reaction prior to measurement of OD660 to quantify the amounts of free phosphate cleaved by the PTPases from the peptide substrate (Pathak et al., J. Imumol. 167, 3391 (2001)). The remaining 10% contents of individual samples were analyzed by SDS-PAGE/Western blotting to quantify the relative amounts of the phosphatase proteins. […]
The effects of sodium stibogluconate on intracellular PTPases were assessed using NIH3T3 or WM9 transfectants. […]

WiT49-N1 cells = assay: Cell proliferation assay (MTT), WiT49-N1 Wilms tumor cells; format: cell-based, human; conditions: day 6
Method: as §1

O.O.O.O.O.O.O.O.O.O=C([O-])[C@@H]1[O][Sb]2([O-])([O][Sb]34([OH])[O][C@H]([C@H](O)CO)[C@H]([O]3)[C@H](C(=O)[O-])[O]4)[O][C@H]([C@H](O)CO)[C@@H]1[O]2.[Na+].[Na+].[Na+] [sodium stibogluconate]
sensitivity of C42 cells (C42 cells): highly resistant
tolerability at the dosage used ([1]; 12 mg Sb daily (440 mg Sb/kg daily)): well tolerated with no serious side effects
survival of DU145 tumor mice ([1]; 440 mg/kg daily): survived until the end of the study
histology of major organs ([1]; 440 mg/kg daily, DU145 tumor mice): unremarkable
tolerated daily dose in mice (pilot study) ([1]; approximately 700-800 mg Sb/kg): 20 mg Sb
survival of WM9 xenograft nude mice ([1]; day 25, 4 mice/group): survived until the end of the study
cell killing, U251 (U251 cells): near-complete cell killing
killing of MDA231 cells, single agent (MDA231 cells; 50 μg/ml and 100 μg/ml, day 6 culture): killed all cells
IFN-alpha-induced growth inhibition of MDA231 in presence of drug (MDA231 cells; day 6): augmented
PTPase activity of anti-Flag immunocomplexes, Flag-PRL-3 (Flag-PRL-3): lack of PTPase activity
growth inhibition of WiT49-N1 with added IFN-alpha (WiT49-N1 cells): not enhanced by IFN-alpha
sensitivity of WiT49-N1 cells (WiT49-N1 cells): sensitive
